Experimental data published in ChEMBL document CHEMBL5120784, “Discovery of a novel 2-aminopyrazine-3-carboxamide as a potent and selective inhibitor of Activin Receptor-Like Kinase-2 (ALK2) for the treatment of fibrodysplasia ossificans progressiva” (Bioorg Med Chem Lett, 2022).
Values after ≈ are worked out from the molar mass of the structure shown.

Tests used:
[1] = Microsomal stability in mouse liver microsomes assessed as clearance; type: ADME, Microsome
[2] = Permeability of compound by PAMPA assay; type: ADME; parameters: reference not given here
[3] = Aqueous solubility of compound at pH 6.8; type: physicochemical
[4] = target: Interferon-induced, double-stranded RNA-activated protein kinase (Homo sapiens) (UniProt P19525); experiment: Binding affinity to wild type EIF2AK2 (unknown origin) assessed as percent of control at 1 uM by Kinomescan method relative to control
Sequence of Interferon-induced, double-stranded RNA-activated protein kinase (Homo sapiens) (P19525 whole entry): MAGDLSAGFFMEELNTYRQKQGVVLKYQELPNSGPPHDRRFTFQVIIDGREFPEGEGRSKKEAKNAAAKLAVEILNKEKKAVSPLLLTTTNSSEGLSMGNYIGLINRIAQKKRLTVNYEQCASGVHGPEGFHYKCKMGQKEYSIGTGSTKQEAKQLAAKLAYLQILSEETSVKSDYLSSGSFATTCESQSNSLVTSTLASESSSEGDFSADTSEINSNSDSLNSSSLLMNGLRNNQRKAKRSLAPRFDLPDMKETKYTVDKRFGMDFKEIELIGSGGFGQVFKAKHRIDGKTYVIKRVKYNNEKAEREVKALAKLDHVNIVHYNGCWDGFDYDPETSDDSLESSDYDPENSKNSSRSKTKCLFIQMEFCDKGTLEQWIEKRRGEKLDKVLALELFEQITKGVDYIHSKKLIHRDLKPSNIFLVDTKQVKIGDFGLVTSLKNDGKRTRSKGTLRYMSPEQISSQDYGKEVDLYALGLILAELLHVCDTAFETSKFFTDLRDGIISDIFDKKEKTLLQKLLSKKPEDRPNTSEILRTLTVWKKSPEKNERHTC

[5] = organism: Homo sapiens; experiment: Selectivity ratio of IC50 for inhibition of wild type ALK5 (unknown origin) to IC50 for Inhibition of ALK2 R206H mutant (unknown origin)
[6] = organism: Homo sapiens; experiment: Selectivity ratio of IC50 for inhibition of wild type ALK6 (unknown origin) to IC50 for inhibition of ALK2 R206H mutant (unknown origin)
[7] = target: T1, Bone morphogenetic protein receptor type-1A (Homo sapiens, UniProt P36894); experiment: Inhibition of wild type ALK3 (unknown origin) assessed as enzymatic activity using chemiluminescent substrate by ADP-Glo assay
T1 sequence (P36894 whole entry): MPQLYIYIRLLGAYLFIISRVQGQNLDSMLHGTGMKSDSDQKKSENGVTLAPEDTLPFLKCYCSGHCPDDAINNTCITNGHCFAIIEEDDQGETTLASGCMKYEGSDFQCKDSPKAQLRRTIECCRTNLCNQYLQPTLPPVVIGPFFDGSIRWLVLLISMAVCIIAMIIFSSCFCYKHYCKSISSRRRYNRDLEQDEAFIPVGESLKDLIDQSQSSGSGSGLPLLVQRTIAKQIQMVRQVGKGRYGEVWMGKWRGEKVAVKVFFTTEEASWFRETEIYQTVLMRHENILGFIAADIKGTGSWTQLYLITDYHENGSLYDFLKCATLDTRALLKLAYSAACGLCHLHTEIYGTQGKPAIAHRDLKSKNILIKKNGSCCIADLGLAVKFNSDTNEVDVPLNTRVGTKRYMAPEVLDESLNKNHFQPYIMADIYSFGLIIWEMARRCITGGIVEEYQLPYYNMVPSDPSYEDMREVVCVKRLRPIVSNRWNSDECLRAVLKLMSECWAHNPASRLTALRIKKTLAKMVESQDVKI

[8] = target: T2, Bone morphogenetic protein receptor type-1B (Homo sapiens, UniProt O00238); experiment: Binding affinity to wild type ALK6 (unknown origin) assessed as percent of control at 1 uM by Kinomescan method relative to control
T2 sequence (O00238 whole entry): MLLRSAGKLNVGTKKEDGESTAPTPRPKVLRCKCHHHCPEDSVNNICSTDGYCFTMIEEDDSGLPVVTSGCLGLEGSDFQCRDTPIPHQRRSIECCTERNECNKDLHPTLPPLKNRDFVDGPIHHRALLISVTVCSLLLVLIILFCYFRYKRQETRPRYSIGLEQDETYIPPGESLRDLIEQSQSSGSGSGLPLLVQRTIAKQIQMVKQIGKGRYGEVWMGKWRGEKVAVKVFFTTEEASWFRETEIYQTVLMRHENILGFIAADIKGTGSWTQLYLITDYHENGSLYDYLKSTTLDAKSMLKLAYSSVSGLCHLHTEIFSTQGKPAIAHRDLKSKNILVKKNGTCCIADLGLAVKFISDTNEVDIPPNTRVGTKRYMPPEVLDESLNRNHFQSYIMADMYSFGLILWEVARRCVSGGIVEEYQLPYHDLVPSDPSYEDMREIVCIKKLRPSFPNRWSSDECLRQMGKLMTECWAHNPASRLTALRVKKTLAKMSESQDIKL

[9] = target: Dual specificity protein kinase CLK1 (Homo sapiens) (UniProt P49759); experiment: Binding affinity to wild type CLK1 (unknown origin) assessed as percent of control at 1 uM by Kinomescan method relative to control
Sequence of Dual specificity protein kinase CLK1 (Homo sapiens) (P49759 whole entry, looked up, the tested form may be a part): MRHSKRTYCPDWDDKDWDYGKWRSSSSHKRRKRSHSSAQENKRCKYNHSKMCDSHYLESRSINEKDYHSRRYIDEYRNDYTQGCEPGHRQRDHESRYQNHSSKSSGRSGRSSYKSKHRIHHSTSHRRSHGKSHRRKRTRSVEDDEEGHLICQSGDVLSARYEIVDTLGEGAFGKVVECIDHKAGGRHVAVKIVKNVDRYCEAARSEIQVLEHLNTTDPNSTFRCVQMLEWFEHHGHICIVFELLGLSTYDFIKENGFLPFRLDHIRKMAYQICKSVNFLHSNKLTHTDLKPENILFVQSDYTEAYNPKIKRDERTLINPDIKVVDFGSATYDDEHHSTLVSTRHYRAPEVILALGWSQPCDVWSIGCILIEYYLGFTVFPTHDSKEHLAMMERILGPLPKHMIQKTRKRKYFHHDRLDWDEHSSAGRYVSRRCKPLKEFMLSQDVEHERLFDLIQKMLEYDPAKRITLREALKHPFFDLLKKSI

[10] = target: Non-receptor tyrosine-protein kinase TYK2 (Homo sapiens) (UniProt P29597); experiment: Binding affinity to wild type TYK2 JH2 domain (unknown origin) assessed as percent of control at 1 uM by Kinomescan method relative to control
Sequence of Non-receptor tyrosine-protein kinase TYK2 (Homo sapiens) (P29597 whole entry, the tested form may be a part): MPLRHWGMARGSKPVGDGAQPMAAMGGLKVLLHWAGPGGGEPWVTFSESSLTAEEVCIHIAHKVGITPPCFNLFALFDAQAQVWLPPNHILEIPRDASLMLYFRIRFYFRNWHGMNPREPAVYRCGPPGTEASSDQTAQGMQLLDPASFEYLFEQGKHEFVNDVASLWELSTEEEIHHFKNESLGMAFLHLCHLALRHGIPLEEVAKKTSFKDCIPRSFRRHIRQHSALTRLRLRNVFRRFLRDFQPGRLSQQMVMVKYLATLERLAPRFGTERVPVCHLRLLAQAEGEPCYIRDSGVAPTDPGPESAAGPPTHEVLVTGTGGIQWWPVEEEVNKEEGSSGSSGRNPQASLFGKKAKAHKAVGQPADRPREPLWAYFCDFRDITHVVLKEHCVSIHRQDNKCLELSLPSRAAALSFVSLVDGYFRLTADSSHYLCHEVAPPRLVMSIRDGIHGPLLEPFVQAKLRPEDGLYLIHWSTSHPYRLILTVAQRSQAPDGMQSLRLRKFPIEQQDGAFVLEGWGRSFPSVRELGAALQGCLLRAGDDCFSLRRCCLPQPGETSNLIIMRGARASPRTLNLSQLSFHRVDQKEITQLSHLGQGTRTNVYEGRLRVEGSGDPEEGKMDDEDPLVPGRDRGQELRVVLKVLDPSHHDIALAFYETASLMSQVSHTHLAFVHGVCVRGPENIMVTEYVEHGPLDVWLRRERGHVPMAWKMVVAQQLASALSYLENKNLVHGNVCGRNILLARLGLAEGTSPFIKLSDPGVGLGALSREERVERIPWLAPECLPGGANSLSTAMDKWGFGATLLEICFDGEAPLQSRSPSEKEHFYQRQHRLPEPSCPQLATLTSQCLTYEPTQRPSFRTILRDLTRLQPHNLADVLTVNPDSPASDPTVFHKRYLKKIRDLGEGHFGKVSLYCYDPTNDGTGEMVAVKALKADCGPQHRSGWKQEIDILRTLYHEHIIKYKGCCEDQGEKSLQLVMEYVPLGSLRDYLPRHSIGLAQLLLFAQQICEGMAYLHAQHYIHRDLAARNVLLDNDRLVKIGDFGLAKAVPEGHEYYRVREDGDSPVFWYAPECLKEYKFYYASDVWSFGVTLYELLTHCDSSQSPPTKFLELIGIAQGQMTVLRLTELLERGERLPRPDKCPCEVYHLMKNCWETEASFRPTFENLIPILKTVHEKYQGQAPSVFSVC

[11] = target: T3, Activin receptor type-1 (Homo sapiens, UniProt Q04771); experiment: Inhibition of wild type ALK2 (unknown origin) assessed as enzymatic activity by microfluidic mobility shift assay
T3 sequence (Q04771 whole entry): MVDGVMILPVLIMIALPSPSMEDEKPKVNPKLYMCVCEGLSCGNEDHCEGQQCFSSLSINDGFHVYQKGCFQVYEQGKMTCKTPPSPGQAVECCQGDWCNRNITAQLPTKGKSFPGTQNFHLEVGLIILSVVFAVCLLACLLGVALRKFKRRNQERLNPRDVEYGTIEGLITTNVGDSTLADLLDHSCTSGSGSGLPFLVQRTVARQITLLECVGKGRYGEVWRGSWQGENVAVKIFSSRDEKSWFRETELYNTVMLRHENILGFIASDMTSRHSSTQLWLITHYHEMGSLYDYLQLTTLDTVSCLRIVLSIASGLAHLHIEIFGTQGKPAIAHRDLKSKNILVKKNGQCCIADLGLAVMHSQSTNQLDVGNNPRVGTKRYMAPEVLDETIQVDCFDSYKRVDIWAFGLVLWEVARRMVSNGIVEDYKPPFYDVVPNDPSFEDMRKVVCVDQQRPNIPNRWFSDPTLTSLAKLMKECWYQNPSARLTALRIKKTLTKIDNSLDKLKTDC

[12] = organism: Homo sapiens; experiment: Selectivity ratio of IC50 for inhibition of wild type ALK1 (unknown origin) to IC50 for inhibition of ALK2 R206H mutant (unknown origin)
[13] = target: T4, Activin receptor type-1-like (Homo sapiens, UniProt P37023); experiment: Binding affinity to wild type ALK1 (unknown origin) assessed as percent of control at 1 uM by Kinomescan method relative to control
T4 sequence (P37023 whole entry): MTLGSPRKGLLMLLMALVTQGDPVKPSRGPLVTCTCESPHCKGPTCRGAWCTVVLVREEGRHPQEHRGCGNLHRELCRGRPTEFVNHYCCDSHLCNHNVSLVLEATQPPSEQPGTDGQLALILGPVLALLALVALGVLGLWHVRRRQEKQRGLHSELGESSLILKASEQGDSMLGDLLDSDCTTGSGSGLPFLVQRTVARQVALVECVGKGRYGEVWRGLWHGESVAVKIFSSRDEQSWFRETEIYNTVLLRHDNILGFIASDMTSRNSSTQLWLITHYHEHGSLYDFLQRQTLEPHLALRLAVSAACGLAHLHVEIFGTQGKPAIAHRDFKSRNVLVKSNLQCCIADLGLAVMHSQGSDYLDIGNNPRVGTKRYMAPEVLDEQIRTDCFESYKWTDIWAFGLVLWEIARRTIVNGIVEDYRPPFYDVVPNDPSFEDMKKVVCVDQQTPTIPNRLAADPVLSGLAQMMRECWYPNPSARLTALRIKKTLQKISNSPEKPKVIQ

[14] = target: T1, Bone morphogenetic protein receptor type-1A; experiment: Binding affinity to wild type ALK3 (unknown origin) assessed as percent of control at 1 uM by Kinomescan method relative to control
[15] = target: T5, Activin receptor type-1 (Homo sapiens, UniProt Q04771, R206H); experiment: Inhibition of ALK2 R206H mutant (unknown origin) transfected in BMP6-stimulated human HEK293 cells by luciferase reporter gene assay; type: cell-based
T5 sequence (Q04771 21-509 R206H limits assumed): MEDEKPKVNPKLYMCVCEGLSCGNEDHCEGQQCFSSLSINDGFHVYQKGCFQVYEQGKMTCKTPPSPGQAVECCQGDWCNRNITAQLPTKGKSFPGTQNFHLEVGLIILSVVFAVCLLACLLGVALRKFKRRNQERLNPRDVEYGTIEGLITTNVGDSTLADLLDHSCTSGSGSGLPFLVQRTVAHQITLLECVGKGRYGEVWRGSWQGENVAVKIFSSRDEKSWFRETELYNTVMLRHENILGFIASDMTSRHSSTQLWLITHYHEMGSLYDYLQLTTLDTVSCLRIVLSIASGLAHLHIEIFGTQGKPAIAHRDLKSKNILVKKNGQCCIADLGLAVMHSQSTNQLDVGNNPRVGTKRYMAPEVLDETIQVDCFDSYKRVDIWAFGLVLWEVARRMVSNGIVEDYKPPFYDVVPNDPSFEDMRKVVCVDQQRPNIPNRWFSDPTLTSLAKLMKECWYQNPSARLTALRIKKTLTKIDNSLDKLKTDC

[16] = organism: Homo sapiens; experiment: Selectivity ratio of IC50 for inhibition of wild type ALK3 (unknown origin) to IC50 for inhibition of ALK2 R206H mutant (unknown origin)
[17] = target: T6, Activin receptor type-1 (Homo sapiens) (UniProt Q04771); experiment: Binding affinity to wild type ALK2 (unknown origin) assessed as percent of control at 1 uM by Kinomescan method relative to control
T6 sequence (whole entry): T3 sequence (Q04771 whole entry)

[18] = target: T5, Activin receptor type-1; experiment: Inhibition of ALK2 R206H mutant (unknown origin) assessed as enzymatic activity by microfluidic mobility shift assay
[19] = target: T2, Bone morphogenetic protein receptor type-1B; experiment: Inhibition of wild type ALK6 (unknown origin) assessed as enzymatic activity using chemiluminescent substrate by ADP-Glo assay
[20] = target: Serine/threonine-protein kinase 38 (Homo sapiens) (UniProt Q15208); experiment: Binding affinity to wild type STK38 (unknown origin) assessed as percent of control at 1 uM by Kinomescan method relative to control
Sequence of Serine/threonine-protein kinase 38 (Homo sapiens) (Q15208 2-465 limits assumed): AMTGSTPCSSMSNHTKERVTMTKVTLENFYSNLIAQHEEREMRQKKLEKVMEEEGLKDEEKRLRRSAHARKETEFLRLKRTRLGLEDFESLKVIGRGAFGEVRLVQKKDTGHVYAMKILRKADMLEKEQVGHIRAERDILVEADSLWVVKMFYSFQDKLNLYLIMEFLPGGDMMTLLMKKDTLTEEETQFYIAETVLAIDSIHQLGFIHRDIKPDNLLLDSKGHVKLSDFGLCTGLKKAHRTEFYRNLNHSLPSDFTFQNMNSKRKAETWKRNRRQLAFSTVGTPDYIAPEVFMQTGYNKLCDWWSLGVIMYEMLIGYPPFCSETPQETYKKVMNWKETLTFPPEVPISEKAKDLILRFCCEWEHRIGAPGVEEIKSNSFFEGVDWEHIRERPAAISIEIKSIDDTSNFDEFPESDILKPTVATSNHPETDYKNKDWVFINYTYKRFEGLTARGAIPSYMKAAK

[21] = target: T4, Activin receptor type-1-like; experiment: Inhibition of wild type ALK1 (unknown origin) assessed as enzymatic activity by microfluidic mobility shift assay
[22] = target: T7, TGF-beta receptor type-1 (Homo sapiens, UniProt P36897); experiment: Inhibition of wild type ALK5 (unknown origin) assessed as enzymatic activity by microfluidic mobility shift assay
T7 sequence (P36897 whole entry): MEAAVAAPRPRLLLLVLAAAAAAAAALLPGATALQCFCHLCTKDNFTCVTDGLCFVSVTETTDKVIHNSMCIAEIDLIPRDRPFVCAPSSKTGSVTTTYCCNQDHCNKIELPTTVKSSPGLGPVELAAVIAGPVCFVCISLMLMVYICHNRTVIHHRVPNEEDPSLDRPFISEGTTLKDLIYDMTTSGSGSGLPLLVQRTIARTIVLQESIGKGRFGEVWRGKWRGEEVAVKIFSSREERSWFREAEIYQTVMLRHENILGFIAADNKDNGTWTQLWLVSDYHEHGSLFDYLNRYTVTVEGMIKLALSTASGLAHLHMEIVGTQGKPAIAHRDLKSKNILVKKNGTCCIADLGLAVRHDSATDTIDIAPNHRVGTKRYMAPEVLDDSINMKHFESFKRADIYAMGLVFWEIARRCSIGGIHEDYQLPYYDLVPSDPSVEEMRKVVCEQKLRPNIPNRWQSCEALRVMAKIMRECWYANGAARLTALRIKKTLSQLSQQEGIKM

[23] = target: Dual specificity protein kinase CLK2 (Homo sapiens) (UniProt P49760); experiment: Binding affinity to wild type CLK2 (unknown origin) assessed as percent of control at 1 uM by Kinomescan method relative to control
[24] = organism: Homo sapiens; experiment: Selectivity ratio of IC50 for inhibition of wild type ALK2 (unknown origin) to IC50 for inhibition of ALK2 R206H mutant (unknown origin)

Q: What does the source list for `CCNC(=O)c1nc(-c2ccc(CN(C)C)cc2)cnc1N`?
A: CLH [1]: 373 µL/min/mg; permeability [2]: 99%; solubility [3]: > 1000 µM

Q: For `CN(C)Cc1ccc(-c2cnc(N)c(C(=O)NC3CCC(O)CC3)n2)cc1` (centres undefined), which CLH [1] is on record?
A: 64 µL/min/mg

Q: And the permeability [2]?
A: 94%

Q: And the solubility [3]?
A: 850 µM (≈ 314 µg/mL)

Q: What does the source list for `C[C@@](O)(CNC(=O)c1nc(-c2ccc(CN3CCCC3)cc2)cnc1N)C(F)(F)F`?
A: CLH [1]: 41 µL/min/mg; permeability [2]: 99%; solubility [3]: > 1000 µM

Q: Which CLH [1] does the source give for `CC(C)NC(=O)c1nc(-c2ccc(CN(C)C)cc2)cnc1N` here?
A: 634 µL/min/mg

Q: And the permeability [2]?
A: 100%

Q: What about the solubility [3] of the same compound?
A: > 1000 µM

Q: Which CLH [1] does the source give for `Nc1ncc(-c2ccc(CN3CCC(N4CCOCC4)CC3)cc2Cl)nc1C(=O)NC12CCC(O)(CC1)CC2` here?
A: 55 µL/min/mg

Q: And the Activity [4]?
A: 14%

Q: And the Ratio IC50 [5]?
A: 275

Q: What about the Ratio IC50 [6] of the same compound?
A: 263

Q: And the IC50 [7]?
A: 280 nM

Q: And the Activity [8]?
A: 0.7%

Q: And the Activity [9]?
A: 29%

Q: And the Activity [10]?
A: 24%

Q: And the IC50 [11]?
A: 12 nM

Q: And the Ratio IC50 [12]?
A: 15

Q: And the Activity [13]?
A: 8.5%

Q: What about the Activity [14] of the same compound?
A: 11%

Q: What about the permeability [2] of the same compound?
A: 99%

Q: And the IC50 [15]?
A: 44 nM

Q: What about the Ratio IC50 [16] of the same compound?
A: 35

Q: What about the Activity [17] of the same compound?
A: 2%

Q: What about the solubility [3] of the same compound?
A: 420 µM (≈ 233 µg/mL)

Q: What about the IC50 [18] of the same compound?
A: 8 nM

Q: And the IC50 [19]?
A: 2100 nM

Q: What about the Activity [20] of the same compound?
A: 14%

Q: What about the IC50 [21] of the same compound?
A: 120 nM

Q: What about the IC50 [22] of the same compound?
A: 2200 nM

Q: What about the Activity [23] of the same compound?
A: 27%

Q: What about the Ratio IC50 [24] of the same compound?
A: 1.5

Q: What does the source list for `Nc1ncc(-c2ccc(CN3CCC(N4CCOCC4)CC3)cc2Cl)nc1C(=O)N[C@H]1CC[C@H](O)CC1`?
A: CLH [1]: 74 µL/min/mg; permeability [2]: 96%; solubility [3]: > 1000 µM

Q: For `C[C@@](O)(CNC(=O)c1nc(-c2ccc(CN3CCOCC3)cc2)cnc1N)C(F)(F)F`, which CLH [1] is on record?
A: 86 µL/min/mg

Q: And the permeability [2]?
A: 99%

Q: What about the solubility [3] of the same compound?
A: 190 µM (≈ 83.5 µg/mL)

Q: With `Nc1ncc(-c2ccc(CN3CCC(N4CCCC4)CC3)cc2)nc1C(=O)N[C@H]1CC[C@H](O)CC1` (stereo in doubt; 19) as the compound, how does the CLH [1] read?
A: 23 µL/min/mg

Q: And the permeability [2]?
A: 62%

Q: What does the source list for `CC(O)CNC(=O)c1nc(-c2ccc(CN(C)C)cc2)cnc1N` (racemic)?
A: CLH [1]: 103 µL/min/mg; permeability [2]: 77%; solubility [3]: > 1000 µM

Q: Which results are given for `CC(C)N1CCN(Cc2ccc(-c3cnc(N)c(C(=O)N[C@H]4CC[C@H](O)CC4)n3)cc2)CC1`?
A: CLH [1]: 12 µL/min/mg; permeability [2]: 85%; solubility [3]: 830 µM (≈ 376 µg/mL)

Q: With `CN(C)Cc1ccc(-c2cnc(N)c(C(=O)NC3CCCCC3)n2)cc1` as the compound, how does the CLH [1] read?
A: 839 µL/min/mg

Q: What about the permeability [2] of the same compound?
A: 100%

Q: What about the solubility [3] of the same compound?
A: 190 µM (≈ 67.2 µg/mL)

Q: Which CLH [1] does the source give for `Nc1ncc(-c2ccc(CN3CCC(N4CCOCC4)CC3)cc2)nc1C(=O)N[C@H]1CC[C@H](O)CC1` here?
A: 19 µL/min/mg

Q: What about the permeability [2] of the same compound?
A: 65%

Q: What about the solubility [3] of the same compound?
A: > 1000 µM

Q: What does the source list for `CC(C)N1CCN(Cc2ccc(-c3cnc(N)c(C(=O)NC[C@@](C)(O)C(F)(F)F)n3)cc2)CC1`?
A: CLH [1]: 28 µL/min/mg; permeability [2]: 99%; solubility [3]: > 1000 µM

Q: Which results are given for `CCN(CC)Cc1ccc(-c2cnc(N)c(C(=O)NC[C@@](C)(O)C(F)(F)F)n2)cc1`?
A: CLH [1]: 58 µL/min/mg; permeability [2]: 99%; solubility [3]: > 1000 µM

Q: Which CLH [1] does the source give for `C[C@]1(O)CC[C@H](NC(=O)c2nc(-c3ccc(CN4CCC(N5CCOCC5)CC4)cc3Cl)cnc2N)CC1` here?
A: 197 µL/min/mg

Q: For `CN(C)Cc1ccc(-c2cnc(N)c(C(=O)NC3CCCC3O)n2)cc1` (centres undefined), which CLH [1] is on record?
A: 179 µL/min/mg

Q: What about the permeability [2] of the same compound?
A: 99%

Q: What about the solubility [3] of the same compound?
A: 940 µM (≈ 334 µg/mL)

Q: Which results are given for `C[C@@](O)(CNC(=O)c1nc(-c2ccc(CN3CCNCC3)cc2)cnc1N)C(F)(F)F`?
A: CLH [1]: < 10 µL/min/mg; permeability [2]: 42%; solubility [3]: > 1000 µM

Q: Which CLH [1] does the source give for `CN(C)Cc1ccc(-c2cnc(N)c(C(=O)NC[C@@](C)(O)C(F)(F)F)n2)cc1` here?
A: 126 µL/min/mg

Q: What about the permeability [2] of the same compound?
A: 99%

Q: And the solubility [3]?
A: 510 µM (≈ 203 µg/mL)

Q: For `C[C@@](O)(CNC(=O)c1nc(-c2ccc(CN3CCS(=O)(=O)CC3)cc2)cnc1N)C(F)(F)F`, which CLH [1] is on record?
A: 20 µL/min/mg

Q: And the permeability [2]?
A: 45%

Q: And the solubility [3]?
A: 4 µM (≈ 1.95 µg/mL)

Q: With `Nc1ncc(-c2ccc(CN3CCC(N4CCCC4)CC3)cc2)nc1C(=O)N[C@H]1CC[C@H](O)CC1` (stereo in doubt; 18) as the compound, how does the CLH [1] read?
A: < 10 µL/min/mg

Q: What about the permeability [2] of the same compound?
A: 56%

Q: What about the solubility [3] of the same compound?
A: > 1000 µM

Q: With `CCN(CC)C1CCN(Cc2ccc(-c3cnc(N)c(C(=O)N[C@H]4CC[C@H](O)CC4)n3)cc2)CC1` as the compound, how does the CLH [1] read?
A: < 10 µL/min/mg

Q: And the permeability [2]?
A: 61%

Q: What about the solubility [3] of the same compound?
A: > 1000 µM

Q: With `CN(C)Cc1ccc(-c2cnc(N)c(C(=O)NCC(O)C(F)(F)F)n2)cc1` (centres undefined) as the compound, how does the CLH [1] read?
A: 159 µL/min/mg

Q: What about the permeability [2] of the same compound?
A: 93%

Q: And the solubility [3]?
A: 880 µM (≈ 337 µg/mL)
